This note sets out measurements from patent EP1763350B1, “NICOTINAMIDE DERIVATIVES AND THEIR USE AS THERAPEUTIC AGENTS” (Xenon Pharmaceuticals Inc., priority 2004, dated 2006).

Values joined by “and” are separate entries in the source; they are usually repeats but may differ in a detail not shown here. Equal values may be shown once.

This assay addresses T1, SCD (Mus musculus, UniProt P13516).
T1 construct: from tissue; host or cells: mouse liver microsomes (induced for SCD1 expression)
T1 sequence (P13516 1-355): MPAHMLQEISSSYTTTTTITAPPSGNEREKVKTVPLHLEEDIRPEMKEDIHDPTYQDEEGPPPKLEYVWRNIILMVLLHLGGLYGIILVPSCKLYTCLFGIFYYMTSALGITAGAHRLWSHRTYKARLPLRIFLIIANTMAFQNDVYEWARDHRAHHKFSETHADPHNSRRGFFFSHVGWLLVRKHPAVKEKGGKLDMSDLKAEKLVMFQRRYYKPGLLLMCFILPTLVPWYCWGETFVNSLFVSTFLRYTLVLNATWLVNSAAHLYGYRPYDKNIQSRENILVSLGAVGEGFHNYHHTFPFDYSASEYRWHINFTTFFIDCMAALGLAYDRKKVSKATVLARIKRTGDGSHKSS
The assay can be described thus: SCD microsomal assay (tritiated stearoyl-CoA, release of labeled water), mouse liver microsomes. It is filed as biochemical. Particulars: % remaining SCD activity at 10 µM of test compound, 100 µg, preincubation 15 minutes, desaturation period 15 minutes at ambient temperature. The text has this: The identification of compounds of the invention as SCD inhibitors was readily accomplished using the SCD enzyme and microsomal assay procedure described in Brownlie et al, supra.
The identification of compounds of the invention as SCD inhibitors was readily accomplished using the SCD enzymes and microsomal assay procedure described in Brownlie et al, PCT published patent application, WO 01/62954. Briefly, mouse or human liver microsomes (induced for SCD1 expression and containing cytochrome b5 and cytochrome b5 reductase) and NADH are suspended in buffer with a compound of the invention, and reaction is initiated by addition of 0.025 mM tritiated stearoyl-CoA. This ligand is tritiated at the C9 and C10 position only. The reaction is allowed to proceed for between 5 and 20 minutes at ambient temperature, whereupon it is halted by addition of acid. Activated charcoal is then added, mixed, and centrifuged to separate labeled substrate from labeled water. An aliquot of supernatant is than tested for radioactivity using liquid scintillation counting. This is taken as a measure of delta-9 desaturase activity.
Compounds were tested in mouse liver microsomes, 100 µg, preincubation with the test compound for 15 minutes at ambient temperature, a desaturation period for 15 minutes at ambient temperature, utilizing the large volume bench-top tube method. TABLE 3. SCD INHIBITORY ACTIVITY FOR SELECTED COMPOUNDS.
(Microsomes from liver hold many membrane-bound enzymes, among them those of drug oxidation.)
`CC(CCc1ccccc1)NC(=O)c1ccc(N2CCN(C(=O)c3ccc(Cl)cc3Cl)CC2)nc1` (centres unmarked) [6-[4-(2,4-Dichloro-benzoyl)-piperazin-1-yl]-N-(1-methyl-3-phenyl-propyl)-nicotinamide] returned an activity at 10 µM of 2.7%. With `CCCCCNC(=O)c1ccc(N2CCN(C(=O)c3ccc(Cl)cc3Cl)CC2)nc1` [6-[4-(2,4-Dichloro-benzoyl)-piperazin-1-yl]-N-pentyl-nicotinamide], the activity at 10 µM came to 1.2%.

`CCSCCNC(=O)c1ccc(N2CCN(C(=O)c3cc(OC)ccc3Br)CC2)nc1` [6-[4-(2-Bromo-5-methoxy-benzoyl)-piperazin-1-yl]-N-(2-ethylsulfanylethyl)-nicotinamide] yielded an activity at 10 µM of 1.4%.

Compound `COc1ccc(Br)c(C(=O)N2CCN(c3ccc(C(=O)NCCc4ccccc4)cn3)CC2)c1` [6-[4-(2-Bromo-5-methoxy-benzoyl)-piperazin-1-yl]-N-phenethylnicotinamide] gave an activity at 10 µM of 1.1%. The same measure, in the same setting: for `CCCCOCCCNC(=O)c1ccc(N2CCN(C(=O)c3ccccc3Br)CC2)nc1` [6-[4-(2-Bromo-benzoyl)-piperazin-1-yl]-N-(3-butoxy-propyl)-nicotinamide] the value was 0.8%. On the same count and under the same terms, for `CCOCCCNC(=O)c1ccc(N2CCN(C(=O)c3ccccc3Br)CC2)nc1` [6-[4-(2-Bromo-benzoyl)-piperazin-1-yl]-N-(3-ethoxy-propyl)-nicotinamide] the value was 1%. Still for that read-out and setting: next, `COCCCNC(=O)c1ccc(N2CCN(C(=O)c3ccccc3Br)CC2)nc1` [6-[4-(2-Bromo-benzoyl)-piperazin-1-yl]-N-(3-methoxy-propyl)-nicotinamide]: 1.2%. For the compound `CCC(CC)C(=O)N1CCN(c2ccc(C(=O)NCCC(C)C)cn2)CC1` [6-[4-(2-Ethylbutyryl)-piperazin-1-yl]-N-(3-methylbutyl)-nicotinamide], the activity at 10 µM came out at 1.7%. The same measure, in the same setting: for `CCCCCNC(=O)c1ccc(N2CCN(C(=O)Cc3ccc4ccccc4c3)CC2)nc1` [6-[4-(2-Naphthalen-2-yl-acetyl)-piperazin-1-yl]-N-pentylnicotinamide] the value was 0.7%.

On to `CCC(C(=O)N1CCN(c2ccc(C(=O)NCCCc3ccccc3)cn2)CC1)c1ccccc1` (centres unmarked) [6-[4-(2-Phenyl-butyryl)-piperazin-1-yl]-N-(3-phenyl-propyl)-nicotinamide], for which the activity at 10 µM was found to be 3.6%. With `CCCC(C)NC(=O)c1ccc(N2CCN(C(=O)CCC3CCCCC3)CC2)nc1` (centres unmarked) [6-[4-(3-Cyclohexyl-propionyl)-piperazin-1-yl]-N-(1-methylbutyl)-nicotinamide], the activity at 10 µM was 2.1%. On the same count and under the same terms, for `CCSCCNC(=O)c1ccc(N2CCN(C(=O)CCC3CCCCC3)CC2)nc1` [6-[4-(3-Cyclohexyl-propionyl)-piperazin-1-yl]-N-(2-ethylsulfanyl-ethyl)-nicotinamide] the value was 1.4%; for `CC(C)CCNC(=O)c1ccc(N2CCN(C(=O)CCC3CCCCC3)CC2)nc1` [6-[4-(3-Cyclohexyl-propionyl)-piperazin-1-yl]-N-(3-methylbutyl)-nicotinamide], 1.3%; for `CC(C)CC(C)NC(=O)c1ccc(N2CCN(C(=O)c3ccccc3C(F)(F)F)CC2)nc1` (centres unmarked) [N-(1,3-Dimethylbutyl)-6-[4-(2-trifluoromethyl-benzoyl)-piperazin-1-yl]-nicotinamide], 1.8%.

In turn, `Cc1ccsc1C(=O)N1CCN(c2ccc(C(=O)NC(C)CCc3ccccc3)cn2)CC1` (centres unmarked) [N-(1-Methyl-3-phenyl-propyl)-6-[4-(3-methyl-thiophene-2-carbonyl)-piperazin-1-yl]-nicotinamide] came in with an activity at 10 µM of 3.4%. Still for that read-out and setting: next, `CCSCCNC(=O)c1ccc(N2CCN(C(=O)Cc3ccc(C)cc3)CC2)nc1` [N-(2-Ethylsulfanyl-ethyl)-6-[4-(2-p-tolylacetyl)-piperazin-1-yl]-nicotinamide]: 1.8%; `CCCCOCCCNC(=O)c1ccc(N2CCN(C(=O)c3ccc(C)cc3C)CC2)nc1` [N-(3-Butoxy-propyl)-6-[4-(2,4-dimethylbenzoyl)-piperazin-1-yl]-nicotinamide]: 0.7%. `Cc1ccccc1CC(=O)N1CCN(c2ccc(C(=O)NCCC(C)C)cn2)CC1` [N-(3-Methyl-butyl)-6-[4-(2-o-tolyl-acetyl)-piperazin-1-yl]-nicotinamide] displayed an activity at 10 µM of 3.2%.

In the case of `O=C(NCCCc1ccccc1)c1ccc(N2CCN(C(=O)c3ccccc3C(F)(F)F)CC2)nc1` [N-(3-Phenyl-propyl)-6-[4-(2-trifluoromethyl-benzoyl)-piperazin-1-yl]-nicotinamide], the “% Activity 10 µM” value is 3.9% and 1.3%. Turning to `CCCCNC(=O)c1ccc(N2CCN(C(=O)C(CC)CC)CC2)nc1` [N-Butyl-6-[4-(2-ethylbutyryl)-piperazin-1-yl]-nicotinamide], the activity at 10 µM turned out to be 2%.
